From ChEMBL document CHEMBL1121433, “New cyclopenta[a]naphthalene derivatives. Synthesis of 2-(carbamylmethyl)-8-hydroxy-3H-cyclopental[a]naphthalene as a possible deoxyribonucleic acid binding agent” (1980) come the findings set out here.

The structures appear in SMILES notation.

In one assay the test system is L1210. The assay can be described thus: Tested for inhibition of compound against growth of L1210 cells at 3.2E-5 M. The format is functional, Mus musculus.
For another assay, the system named is CCRF-CEM. Put plainly: Tested for inhibition of compound against growth of CCRF-CEM cells at 1.0E-4 M. The format is functional, Homo sapiens.

In the case of `NC(=O)CC1=Cc2c(ccc3ccc(O)cc23)C1`, the Inhibition in the assay with L1210 and with CCRF-CEM was 25% in each case.
